Values joined by “and” are separate entries in the source; they are usually repeats but may differ in a detail not shown here. Identical values can stand only once.
Key:
[1] = system: HEK293 cells stably expressing αS-A53T-YFP; experiment: HEK cells transfected with αS aggregated with or without ligand: inclusions (ProteoStat dye, confocal); format: cell-based, human
Procedure: The aggregation of endogenous monomeric αS-A53T-YFP into fibers can be detected by the intracellular fluorescent puncta (Fig. 3a, + αS). A solution of 100 μM αS was aggregated in the absence and presence of NS132 at an equimolar ratio for four days. The resulting solutions of αS fibers (5 μM in monomeric αS, ±NS132) were introduced to HEK cells in the presence of Lipofectamine 3000 for 24 h. In contrast to the control (no fibers), we observed a significant number of fluorescent inclusions in the presence of αS fibers (Fig. 3a, white arrows, +αS), which was a consequence of the templating of endogenous monomeric αS-A53T-YFP by the exogenously added αS fibers. […] Moreover, we observed the colocalization of an adaptor protein, p62, in the aggresome of αS inclusions in HEK cells (Fig. 3b, +αS, red),[51]–[54]. […] The autophagy machinery regulates many vital cellular processes and its impairment due to αS aggregation can lead to PD and other neurodegenerative disorders[51]–[54]. […] We also quantified the inclusions (αS-A53T-YFP) using a ProteoStat dye-based high throughput 96-well plate reader-based assay recently developed in our lab[24]. The ProteoStat dye-based intensity of HEK cells treated with αS fibers was ~4-5 fold higher than the control (no fibers) (Fig. 3c, +αS, black). […] Therefore, we used HEK cells to test the cytotoxicity of the aggregated solution of αS in the absence and presence of NS132 (Fig. 3d). The viability of HEK cells was measured using the (3-(4,5-dimethylthiazol-2-yl)-2,5-diphenyltetrazolium bromide) (MTT) reduction based assay.
The Lipofectamine solution was made fresh for each transfection to avoid possible denaturation of reagents in a stored stock solution. For each transfection protocol, the total volume of lipofectamine solution required is equivalent to 30% of the total volume of αS/lipofectamine solution needed. […]
This assay was performed based on a previous protocol with slight modifications. […] The resulting cell pellets were then homogenized, transferred into an autoclaved 1.7 mL microcentrifuge tube, and counted to normalize the data. […]

αS fibers (PMCA) = molecular target: T1, αS fibers (PMCA) (Homo sapiens, UniProt P37840); experiment: Protein misfolding cyclic amplification assay (PMCA), ThT readout; format: biochemical
T1 construct: made in house; host or cells: E. coli BL21(DE3)
Procedure: The PMCA assay was performed according to a previously described protocol. Briefly, an αS solution (100 µM) was prepared in PBS and 60 µL of the solution was placed in a 200 µL Polymerase Chain Reaction (PCR) tube and the mixture was subjected to five 24 h cycles of 1 min shaking (1200 rpm) and 29 min incubation at 37 °C. Every 24 h, 1 µL of αS solution was passaged to seed 60 µL of fresh soluble monomeric αS solution. The seeding cycle was repeated for five days, after which the ThT signal was measured for all five passages. For the preparation of PMCA samples of αS in the presence of NS132, a molar ratio of 1:1 (αS:NS132) was maintained. All experiments were performed in triplicate. The reported ThT intensity values are the average of three separate experiments with the error bars representing the standard deviations.

[2] = Parallel artificial membrane permeability assay (PAMPA); format: in vitro ADME
Procedure: The permeability of various ligands was assessed with a PAMPA kit (BioAssay Systems, Hayward, CA) according to a previously described protocol. Briefly, 4% lecithin solution (LS) was prepared in dodecane and 5 µL was applied to the donor plate membrane. Then, 300 μL PBS was added to the acceptor plate. Subsequently, 200 µL of ligand solutions (500 μM) and various permeability standards (high, medium, and low, 500 μM) were added to the donor plate membrane. The donor plate was placed in the acceptor plate and incubated at r.t. for 18 h. The solutions were then moved from the acceptor plate into a clear-bottom 96-well plate (Corning Inc., Corning, NY) and absorbance was recorded at 360 nm for various ligands and 275 nm for permeability standards. The permeability was calculated using Eq. (1) below, where the permeability rate, C, equals 7.72 × 10^–6, ODA is the absorbance of the acceptor solution, and ODE is the absorbance of the equilibrium standard.1 Pe=C×−ln1−ODA/ODEcm/s

Cc1ccc(NC(=O)c2ccc(NC(=O)c3ccc([N+](=O)[O-])c(NCCc4c[nH]c5ccccc45)n3)c(NCC3CCCCC3)n2)c(OCC(=O)O)n1 [NS132]
intracellular αS-A53T-YFP inclusions (confocal), in words ([1]; HEK293 cells transfected with αS aggregated in the presence of NS132): significant decrease
ProteoStat intensity versus control (no fibers), in words ([1]; HEK cells + 5 μM αS aggregated with equimolar NS132): did not observe a significant difference
ProteoStat dye intensity (raw), individual experiments ([1]; HEK cells + 5 μM αS fibers aggregated with equimolar NS132, 24 h): 538 and 599 and 420 and 486 and 619 and 476 and 665 and 696 and 519 and 621 and 647 and 693
ThT intensity of PMCA sample, individual trials (αS fibers (PMCA); Cycle 1, αS:NS132 1:1, before PK treatment): 58 and 56 and 50
ThT intensity of PMCA sample, individual trials (αS fibers (PMCA); Cycle 2, αS:NS132 1:1): 63 and 49 and 51
ThT intensity of PMCA sample, individual trials (αS fibers (PMCA); Cycle 3, αS:NS132 1:1): 57 and 62 and 53
ThT intensity of PMCA sample, individual trials (αS fibers (PMCA); Cycle 4, αS:NS132 1:1): 60 and 48 and 64
ThT intensity of PMCA sample, individual trials (αS fibers (PMCA); Cycle 5, αS:NS132 1:1): 86 and 68 and 66
change in ThT intensity of PMCA samples, in words (αS fibers (PMCA); equimolar ratio, up to cycle five): did not observe any significant change
cell permeability (PAMPA), comparison in words [2]: lower in comparison to the PAMPA medium standard
PAMPA permeability (Pe), individual trials ([2]; 500 μM in donor, 18 h, r.t., unit from Eq. 1): 2.69 ×10⁻⁶ cm/s and 2.41 ×10⁻⁶ cm/s and 2.71 ×10⁻⁶ cm/s and 2.89 ×10⁻⁶ cm/s
Papp at 18 h, 500 μM ([2]; PAMPA, 500 μM in donor, 18 h, r.t., unit from Eq. 1, read-out: PAMPA permeability (Pe), individual trials): 2.92 ×10⁻⁶ cm/s

— article PMC11061149, “Protein mimetic 2D FAST rescues alpha synuclein aggregation mediated early and post disease Parkinson’s phenotypes” (Nature Communications, 2024)
